Reference: patent US6930185B2, “Melanin-concentrating hormone antagonist” (Takeda Chemical Industries, Ltd., priority 2000, dated 2005)

melting point | Compound
212 to 216 °C (dec.) | O=C(Nc1ccc2nc(CN3CCN=C3c3ccccc3)ccc2c1)c1ccc(-c2ccccc2)cc1 [Example 94, N-[2-[(2-Phenyl-4,5-dihydro-1H-imidazol-1-yl)methyl]-6-quinolinyl][1,1′-biphenyl]-4-carboxamide]
212 to 214 °C | COc1ccc(-c2ccc(C(=O)Nc3ccc4cc(CN5C(C)(C)CCCC5(C)C)ccc4c3)cc2)cc1 [Example 120, 4′-Methoxy-N-[6-[(2,2,6,6-tetramethyl-1-piperidinyl)methyl]-2-naphthyl][1,1′-biphenyl]-4-carboxamide]
217 to 219 °C (dec.) | C[C@@H]1CCC[C@H](C)N1Cc1ccc2cc(NC(=O)c3ccc(-c4ccc(Cl)cc4)nc3)ccc2n1 [Example 83, 6-(4-Chlorophenyl)-N-[2-[(cis-2,6-dimethyl-1-piperidinyl)methyl]-6-quinolinyl]nicotinamide]
207 to 209 °C | CC(C)N(Cc1ccc2cc(NC(=O)c3ccc(-c4ccc(F)cc4)cc3)ccc2n1)C(C)C [Example 135, N-[2-[(Diisopropylamino)methyl]-6-quinolinyl]-4′-fluoro[1-1′-biphenyl]-4-carboxamide]
211 to 213 °C | Cc1ccc(-c2ccc(C(=O)Nc3ccc4nc(CN(C(C)C)C(C)C)ccc4c3)cn2)cc1 [Example 137, N-[2-[(Diisopropylamino)methyl]-6-quinolinyl]-6-(4-methylphenyl)nicotinamide]
201 to 203 °C | CC(C)N(Cc1ccc2cc(NC(=O)N3CCC(c4ccc(Cl)cc4)CC3)ccc2n1)C(C)C [Example 140, 4-(4-Chlorophenyl)-N-[2-[(diisopropylamino)methyl]-6-quinolinyl]-1-piperidinecarboxamide]
210 to 212 °C | Cc1ccc(C2CCN(C(=O)Nc3ccc4cc(CN5CCCC5)ccc4c3)CC2)cc1 [Example 103, 4-Methylphenyl-N-[6-(1-pyrrolidinylmethyl)-2-naphthyl]-1-piperidinecarboxamide]
201 to 203 °C | CC(C)N(Cc1ccc2cc(NC(=O)c3ccc(-c4ccc(Cl)cc4)nc3)ccc2n1)C(C)C [Example 138, 6-(4-Chlorophenyl)-N-[2-[(diisopropylamino)methyl]-6-quinolinyl]nicotinamide]
124 to 126 °C (dec.) | O=C(Nc1ccc2nc(CN3CCCCC3c3cccnc3)ccc2c1)c1ccc(-c2ccc(Cl)cc2)cc1 (centres unmarked) [Example 116, 4′-Chloro-N-[2-[[2-(3-pyridinyl)-1-piperidinyl]-methyl]-6-quinolinyl][1,1′-biphenyl]-4-carboxamide]
209 to 211 °C | O=C(Nc1ccc2cc(CN3CCCC3)ccc2c1)N1CCC(c2ccc(F)cc2)CC1 [Example 99, 4-(4-Fluorophenyl)-N-[6-(1-pyrrolidinylmethyl)-2-naphthyl]-1-piperidinecarboxamide]
184 to 186 °C | Cc1ccc(C2CCN(C(=O)Nc3ccc4nc(CN(C(C)C)C(C)C)ccc4c3)CC2)cc1 [Example 139, N-[2-[(Diisopropylamino)methyl]-6-quinolinyl]-4-(4-methylphenyl)-1-piperidinecarboxamide]
225 to 227 °C | Cc1ccc(-c2ccc(C(=O)Nc3ccc4nc(CN(C(C)C)C(C)C)ccc4c3)cc2)cc1 [Example 136, N-[2-[(Diisopropylamino)methyl]-6-quinolinyl]-4′-methyl [1-1′-biphenyl]-4-carboxamide]
163 to 166 °C | CC(C)(C)OC(=O)[C@@H]1CCCN1Cc1ccc2cc(NC(=O)c3ccc(-c4ccc(Cl)cc4)cc3)ccc2n1 [Example 118, Tert-butyl (2S)-1-[[6-[[(4′-chloro[1,1′-biphenyl]-4-yl)carbonyl]amino]-2-quinolinyl]methyl]-2-pyrrolidinecarboxylate]

Further lines, the compound ahead of its results:

Compound | melting point
O=C(Nc1ccc2nc(CN3CCOCC3)ccc2c1)c1ccc(-c2ccc(F)cc2)cc1 [Example 13, 4′-Fluoro-N-[2-(4-morpholinylmethyl)-6-quinolinyl][1,1′-biphenyl]-4-carboxamide] | 211 to 212 °C
Cc1ccc(C2CCN(C(=O)Oc3ccc4cc(CN5CCCC5)ccc4c3)CC2)cc1 | 238 to 240 °C
COc1ccc(-c2ccc(C(=O)Nc3ccc4nc(CN5CCCC5)ccc4c3)cn2)cc1 [Example 42, 6-(4-Methoxyphenyl)-N-[2-(1-pyrrolidinylmethyl)-6-quinolinyl]nicotinamide] | 210 °C (dec.)
Cc1ccc(-c2ccc(C(=O)Nc3ccc4nc(CN5CCCCC5)ccc4c3)cc2)cc1 [Example 55, 4′-Methyl-N-[2-(1-piperidinylmethyl)-6-quinolinyl][1,1′-biphenyl]-4-carboxamide] | 198 to 200 °C
O=C(Nc1ccc2nc(CN3CCCCC3)ccc2c1)c1ccc(-c2ccc(F)cc2F)cc1 (hydrate or solvate) [Example 68, 2′,4′-Difluoro-N-[2-(1-piperidinylmethyl)-6-quinolinyl][1,1′-biphenyl]-4-carboxamide] | 181 to 182 °C
O=C(Nc1ccc2nc(CN3CCCC3)ccc2c1)c1ccc(-c2ccc(F)cc2)cc1 [Example 7, 4′-Fluoro-N-[2-(1-pyrrolidinylmethyl)-6-quinolinyl][1,1′-biphenyl]-4-carboxamide] | 190 to 193 °C
Cc1ccc(-c2ccc(C(=O)Nc3ccc4nc(CN(C)C)ccc4c3)cn2)cc1 [Example 17, N-[2-[(Dimethylamino)methyl]-6-quinolinyl]-6-(4-methylphenyl)nicotinamide] | 220 to 222 °C
CN1CCN(Cc2ccc3cc(NC(=O)c4ccc(-c5ccc(Cl)cc5)cc4)ccc3n2)CC1 [Example 24, 4′-Chloro-N-[2-[(4-methyl-1-piperazinyl)methyl]-6-quinolinyl][1,1′-biphenyl]-4-carboxamide] | 215 °C (dec.)
O=C(Nc1ccc2nc(CN3CCCC3)ccc2c1)N1CCC(c2ccccc2)CC1 [Example 39, 4-Phenyl-N-[2-(1-pyrrolidinylmethyl)-6-quinolinyl]-1-piperidinecarboxamide] | 187 to 189 °C
C[C@@H]1CCC[C@H](C)N1Cc1ccc2cc(NC(=O)c3ccc(-c4ccccc4)cc3)ccc2n1 [Example 80, N-[2-[(cis-2,6-Dimethyl-1-piperidinyl)methyl]-6-quinolinyl][1,1′-biphenyl]-4-carboxamide] | 180 to 181 °C
O=C(Nc1ccc2nc(CN3CCCC3)ccc2c1)c1ccc(-c2ccc(Cl)cc2)cc1 [Example 8, 4′-Chloro-N-[2-(1-pyrrolidinylmethyl)-6-quinolinyl][1,1′-biphenyl]-4-carboxamide] | 200 to 202 °C
O=C(Nc1ccc2nc(CN3CCCCC3)ccc2c1)c1ccc(-c2ccc(Cl)cc2)nc1 [Example 57, 6-(4-Chlorophenyl)-N-[2-(1-piperidinylmethyl)-6-quinolinyl]nicotinamide] | 215 to 218 °C (dec.)
O=C(Nc1ccc2cc(CN3CCCC3)ccc2c1)c1ccc(-c2ccc(Cl)cc2)cc1 [Example 2, 4′-Chloro-N-[6-(1-pyrrolidinylmethyl)-2-naphthyl][1,1′-biphenyl]-4-carboxamide] | 214 to 217 °C
CC1(C)CCCC(C)(C)N1Cc1ccc2cc(NC(=O)N3CCC(c4ccc(Cl)cc4)CC3)ccc2n1 [Example 74, 4-(4-Chlorophenyl)-N-[2-[(2,2,6,6-tetramethyl-1-piperidinyl)methyl]-6-quinolinyl]-1-piperidinecarboxamide] | 203 to 204 °C
Cc1ccc(-c2ccc(C(=O)Nc3ccc4nc(CN5[C@H](C)CCC[C@@H]5C)ccc4c3)cc2)cc1 [Example 81, 4′-Methyl-N-[2-[(cis-2,6-dimethyl-1-piperidinyl)methyl]-6-quinolinyl][1,1′-biphenyl]-4-carboxamide] | 198 to 199 °C (dec.)
Cl.O=C(Oc1ccc2cc(CN3CCCC3)ccc2c1)N1CCC(c2ccccc2)CC1 | 213 to 215 °C
O=C(Nc1ccc2nc(CN3CCCC3)ccc2c1)c1ccc(-c2ccccc2)cc1 [Example 43, N-[2-(1-Pyrrolidinylmethyl)-6-quinolinyl][1,1′-biphenyl]-4-carboxamide] | 181 to 183 °C
O=C(Nc1ccc2nc(CN3CCOCC3)ccc2c1)c1ccc(-c2ccc(Cl)cc2)cc1 [Example 11, 4′-Chloro-N-[2-(4-morpholinylmethyl)-6-quinolinyl][1,1′-biphenyl]-4-carboxamide] | 236 to 238 °C
Cc1ccc(C2CCN(C(=O)Nc3ccc4nc(CN5CCCCC5)ccc4c3)CC2)cc1 [Example 64, 4-(4-Methylphenyl)-N-[2-(1-piperidinylmethyl)-6-quinolinyl]-1-piperidinecarboxamide] | 204 to 205 °C (dec.)
O=C(Nc1ccc2nc(CN3CCCCC3)ccc2c1)c1ccc(-c2ccccc2)cc1 [Example 54, N-[2-(1-Piperidinylmethyl)-6-quinolinyl][1,1′-biphenyl]-4-carboxamide] | 186 to 188 °C
CC1CCN(c2ccc(C(=O)Nc3ccc4nc(CN5CCCC5)ccc4c3)cc2)CC1 [Example 21, 4-(4-Methyl-1-piperidinyl)-N-[2-(1-pyrrolidinylmethyl)-6-quinolinyl]benzamide] | 200 to 202 °C
C[C@@H]1CCC[C@H](C)N1Cc1ccc2cc(NC(=O)c3ccc(-c4ccc(F)cc4)cc3)ccc2n1 [Example 79, 4′-Fluoro-N-[2-[(cis-2,6-dimethyl-1-piperidinyl)methyl]-6-quinolinyl][1,1′-biphenyl]-4-carboxamide] | 187 to 188 °C
O=C(Nc1ccc2nc(CN3CCCC3)ccc2c1)c1ccc(N2CCCCC2=O)cc1 [Example 22, 4-(2-Oxo-1-piperidinyl)-N-[2-(1-pyrrolidinylmethyl)-6-quinolinyl]benzamide] | 210 to 212 °C
O=C(Nc1ccc2nc(CN3CCOCC3)ccc2c1)c1ccc(-c2ccccc2)cc1 [Example 12, N-[2-(4-Morpholinylmethyl)-6-quinolinyl][1,1′-biphenyl]-4-carboxamide] | 214 to 215 °C
Cc1ccc(-c2ccc(C(=O)Nc3ccc4nc(CN5CCCC5)ccc4c3)cn2)cc1 [Example 46, 6-(4-Methylphenyl)-N-[2-(1-pyrrolidinylmethyl)-6-quinolinyl]nicotinamide] | 207 to 209 °C
